Experimental data reported in ChEMBL document CHEMBL1201862, “PubChem BioAssay data set” (2004).
The source made the active and inactive calls. For most assays here, no stated cut-off is given here; in the data, actives have a measured EC50 and inactives only a lower limit.

Legend:
Protein RecA = biological target: T1, Protein RecA (Mycobacterium tuberculosis, UniProt P9WHJ3); test: Fluorescence Cell-Free Homogeneous Dose Retest to Identify Inhibitors of RecA-Intein Splicing Activity. [Related pubchem assays (depositor defined):AID2097, AID2223, AID489010, AID492950]; assay type: functional
T1 sequence (P9WHJ3 whole entry): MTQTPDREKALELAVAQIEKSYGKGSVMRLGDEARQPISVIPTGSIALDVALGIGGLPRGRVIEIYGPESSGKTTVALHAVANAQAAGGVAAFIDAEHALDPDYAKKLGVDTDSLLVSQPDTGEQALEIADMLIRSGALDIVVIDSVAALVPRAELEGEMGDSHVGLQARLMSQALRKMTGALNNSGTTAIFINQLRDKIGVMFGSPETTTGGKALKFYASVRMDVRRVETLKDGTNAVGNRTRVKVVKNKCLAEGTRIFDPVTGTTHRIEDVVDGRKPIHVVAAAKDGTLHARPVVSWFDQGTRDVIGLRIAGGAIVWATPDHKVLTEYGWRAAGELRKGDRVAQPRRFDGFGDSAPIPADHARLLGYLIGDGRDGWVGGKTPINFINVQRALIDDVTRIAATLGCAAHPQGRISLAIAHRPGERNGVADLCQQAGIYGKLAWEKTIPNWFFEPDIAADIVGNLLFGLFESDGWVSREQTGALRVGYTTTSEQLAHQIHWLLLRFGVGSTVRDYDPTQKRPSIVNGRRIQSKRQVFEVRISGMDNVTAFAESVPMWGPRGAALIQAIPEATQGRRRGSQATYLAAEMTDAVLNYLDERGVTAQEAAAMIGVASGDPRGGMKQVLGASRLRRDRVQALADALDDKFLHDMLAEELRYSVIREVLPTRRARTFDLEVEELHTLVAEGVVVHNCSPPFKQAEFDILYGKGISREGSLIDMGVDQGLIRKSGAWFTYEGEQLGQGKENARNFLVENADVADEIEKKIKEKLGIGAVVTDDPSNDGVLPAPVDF

[1] = biological target: T2, Histone-lysine N-methyltransferase NSD2 (Homo sapiens, UniProt O96028); assay type: biochemical
T2 sequence (O96028 whole entry): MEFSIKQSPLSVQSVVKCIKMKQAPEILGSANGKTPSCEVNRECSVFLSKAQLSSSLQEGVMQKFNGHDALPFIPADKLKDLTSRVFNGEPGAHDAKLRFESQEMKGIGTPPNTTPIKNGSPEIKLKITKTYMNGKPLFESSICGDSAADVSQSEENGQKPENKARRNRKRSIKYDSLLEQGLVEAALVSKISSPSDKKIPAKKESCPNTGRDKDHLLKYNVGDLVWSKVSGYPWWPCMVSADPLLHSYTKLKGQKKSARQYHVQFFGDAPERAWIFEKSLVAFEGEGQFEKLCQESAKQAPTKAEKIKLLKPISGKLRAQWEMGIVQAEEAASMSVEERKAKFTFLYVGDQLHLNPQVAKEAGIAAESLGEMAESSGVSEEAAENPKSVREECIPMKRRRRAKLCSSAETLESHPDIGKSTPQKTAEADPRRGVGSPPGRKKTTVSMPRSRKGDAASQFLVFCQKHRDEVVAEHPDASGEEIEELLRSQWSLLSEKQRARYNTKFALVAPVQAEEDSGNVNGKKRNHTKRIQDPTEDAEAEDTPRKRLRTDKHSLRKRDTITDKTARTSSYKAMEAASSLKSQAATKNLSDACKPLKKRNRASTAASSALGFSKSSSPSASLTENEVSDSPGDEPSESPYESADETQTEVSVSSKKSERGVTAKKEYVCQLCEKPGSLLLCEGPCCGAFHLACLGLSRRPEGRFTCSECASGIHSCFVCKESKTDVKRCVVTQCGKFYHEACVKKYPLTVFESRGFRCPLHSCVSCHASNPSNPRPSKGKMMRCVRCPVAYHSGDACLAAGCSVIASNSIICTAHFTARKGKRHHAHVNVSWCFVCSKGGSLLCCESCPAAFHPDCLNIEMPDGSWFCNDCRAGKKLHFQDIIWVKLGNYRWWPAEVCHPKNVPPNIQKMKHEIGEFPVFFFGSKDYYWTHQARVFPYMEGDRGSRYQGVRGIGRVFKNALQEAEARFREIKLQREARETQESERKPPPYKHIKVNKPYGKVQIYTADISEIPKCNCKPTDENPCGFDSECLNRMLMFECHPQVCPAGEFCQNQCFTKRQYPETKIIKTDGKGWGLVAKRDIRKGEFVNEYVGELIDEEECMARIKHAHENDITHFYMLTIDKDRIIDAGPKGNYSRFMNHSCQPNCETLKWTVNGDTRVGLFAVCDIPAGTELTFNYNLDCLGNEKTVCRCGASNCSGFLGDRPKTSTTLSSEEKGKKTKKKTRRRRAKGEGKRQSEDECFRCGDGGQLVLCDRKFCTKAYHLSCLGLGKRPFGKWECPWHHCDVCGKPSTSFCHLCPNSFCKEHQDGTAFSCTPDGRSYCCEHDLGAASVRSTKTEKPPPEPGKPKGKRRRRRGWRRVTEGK

[2] = biological target: T3, Zinc finger protein mex-5 (Caenorhabditis elegans, UniProt Q9XUB2); test: MEX-5/TCR-2 RNA interaction inhibitors, dose response, biochemical, C. elegans, fluorescence polarization (AID 1960)
T3 sequence (Q9XUB2 whole entry): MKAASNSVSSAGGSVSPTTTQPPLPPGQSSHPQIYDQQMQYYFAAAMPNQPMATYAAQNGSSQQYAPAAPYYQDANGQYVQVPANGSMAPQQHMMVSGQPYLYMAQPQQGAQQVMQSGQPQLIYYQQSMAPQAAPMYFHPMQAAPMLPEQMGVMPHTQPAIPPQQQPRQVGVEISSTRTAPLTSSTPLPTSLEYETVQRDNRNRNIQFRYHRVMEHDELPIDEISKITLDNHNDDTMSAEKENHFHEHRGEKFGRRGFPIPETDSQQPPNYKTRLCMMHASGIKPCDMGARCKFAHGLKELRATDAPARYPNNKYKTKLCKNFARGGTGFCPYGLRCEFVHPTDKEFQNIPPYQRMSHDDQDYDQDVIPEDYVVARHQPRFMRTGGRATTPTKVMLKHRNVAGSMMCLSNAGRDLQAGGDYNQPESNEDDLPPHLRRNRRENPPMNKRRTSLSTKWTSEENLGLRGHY

[3] = biological target: T4, RNA-binding protein pos-1 (Caenorhabditis elegans, UniProt G5EF15); test: inhibitors of POS-1/mex-3 RNA binding, dose response, biochemical, fluorescence polarization (AID 1964);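 further: purified POS-1 fused to maltose binding protein made in E. coli; potency of compounds blocking POS-1 binding to fluorescent RNA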
T4 sequence (G5EF15 whole entry): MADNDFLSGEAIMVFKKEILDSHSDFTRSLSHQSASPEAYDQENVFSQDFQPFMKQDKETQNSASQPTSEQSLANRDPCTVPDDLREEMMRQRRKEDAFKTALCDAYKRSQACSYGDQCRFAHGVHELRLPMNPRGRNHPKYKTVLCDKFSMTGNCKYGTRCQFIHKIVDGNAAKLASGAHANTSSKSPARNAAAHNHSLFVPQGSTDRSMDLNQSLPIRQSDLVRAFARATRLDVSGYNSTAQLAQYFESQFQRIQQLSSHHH

| Compound | EC50 (Protein RecA) | AC50 [1] | EC50 [2] | EC50 [3] |
| --- | --- | --- | --- | --- |
| COC(=O)c1cc(C)nc2c1C(=O)C(=O)C=C2N1CCOCC1 | 0.199 µM (active) | 0.407 µM (active) |  |  |
| NS(=O)(=O)c1cc(C(=O)NC2CCSc3ccccc32)ccc1Cl (stereo not drawn) |  |  | 18.9 µM (inconclusive) | 13.4 µM (inconclusive) |
| O=C1c2ccccc2C(=O)c2[nH]c(O)nc21 |  |  | 17.9 µM (active) | 28.9 µM (active) |
| CCOC(=O)C1=C(C)OC2(O)c3ccccc3C(=O)C12O (stereo not drawn) |  | 8.9 µM (active) |  |  |
| N#Cc1c(N2CCCC2)nc(N)c2c(N)nc(N3CCCC3)cc12 | 0.109 µM (active) |  |  |  |
